In ChEMBL document CHEMBL5625209, “Rational design and optimization of acylthioureas as novel potent influenza virus non-nucleoside polymerase inhibitors” (Eur J Med Chem, 2023):
Calls of active or inactive are those of the source. No cut-off for these calls is given here.

Experiments:
[1] = Cytotoxicity against MDCK cells by CCK-8 assay; assay type: toxicity, cell-based, Canis lupus familiaris; conditions: dog
[2] = Selectivity index, ratio of CC50 for MDCK cells to EC50 for antiviral activity against Influenza A virus H1N1 (A/Puerto Rico/8/34) infected in MDCK cells; assay type: toxicity, cell-based; conditions: dog, read-out: Ratio CC50/EC50
Influenza A virus = test: Antiviral activity against Influenza A virus H1N1 (A/Puerto Rico/8/34) infected in MDCK cells assessed as reduction in virus-induced cytopathic effect incubated for 48 hrs by CCK8 assay; assay type: functional, organism-based
Influenza B virus [3] = test: Antiviral activity against influenza B virus Victoria/2/87 infected in MDCK cells; assay type: functional, organism-based; conditions: Victoria/2/87, MDCK
Influenza B virus [4] = test: Antiviral activity against influenza B virus B/Yamagata/16/88 infected in MDCK cells; assay type: functional, organism-based; conditions: B/Yamagata/16/88, MDCK
[5] = Cmax in Sprague-Dawley rat at 10 mg/kg, po measured up to 24 hrs by LC-MS analysis; assay type: ADME, organism-based; conditions: in vivo
[6] = AUC(0 to t) in Sprague-Dawley rat at 3 mg/kg, iv measured up to 24 hrs by LC-MS analysis; assay type: ADME, organism-based; conditions: in vivo
[7] = Cmax in Sprague-Dawley rat at 3 mg/kg, iv measured up to 24 hrs by LC-MS analysis; assay type: ADME, organism-based; conditions: in vivo
[8] = AUC(0 to t) in Sprague-Dawley rat at 10 mg/kg, po measured up to 24 hrs by LC-MS analysis; assay type: ADME, organism-based; conditions: in vivo
[9] = AUC(0 to infinity) in Sprague-Dawley rat at 10 mg/kg, po measured up to 24 hrs by LC-MS analysis; assay type: ADME, organism-based; conditions: in vivo
[10] = Tmax in Sprague-Dawley rat at 3 mg/kg, iv measured up to 24 hrs by LC-MS analysis; assay type: ADME, organism-based; conditions: in vivo
[11] = Half life in Sprague-Dawley rat at 3 mg/kg, iv measured up to 24 hrs by LC-MS analysis; assay type: ADME, organism-based; conditions: in vivo
[12] = Oral bioavailability in Sprague-Dawley rat at 10 mg/kg measured up to 24 hrs by LC-MS analysis; assay type: ADME, organism-based; conditions: in vivo
[13] = Tmax in Sprague-Dawley rat at 10 mg/kg, po measured up to 24 hrs by LC-MS analysis; assay type: ADME, organism-based; conditions: in vivo
[14] = Half life in Sprague-Dawley rat at 10 mg/kg, po measured up to 24 hrs by LC-MS analysis; assay type: ADME, organism-based; conditions: in vivo
[15] = AUC(0 to infinity) in Sprague-Dawley rat at 3 mg/kg, iv measured up to 24 hrs by LC-MS analysis; assay type: ADME, organism-based; conditions: in vivo
[16] = Clearance in Sprague-Dawley rat at 3 mg/kg, iv measured up to 24 hrs by LC-MS analysis; assay type: ADME, organism-based; conditions: in vivo

Compound	CC50 [1]	selectivity ratio [2]	EC50 (Influenza A virus)	further results
CC(=O)N[C@H]1[C@H]([C@H](O)[C@H](O)CO)OC(C(=O)O)=C[C@@H]1N=C(N)N [ZANAMIVIR]	> 100000 nM	> 1540	–	–
CC(C)(C)c1ccc(C(=O)NC(=S)Nc2c(Cl)cc(Cl)cc2Cl)cc1	80200 nM	167	480 nM	–
CC(=O)Nc1ccc(NC(=S)NC(=O)c2ccccc2Cl)cc1	–	–	–	Activity (Influenza A virus): inactive
CC(C)(C)c1ccc(C(=O)NC(=S)Nc2ccc(-n3cncn3)cc2)cc1	54000 nM	77.1	700 nM	–
CC(C)(C)c1ccc(C(=O)N2C(=O)CN(c3ccccc3F)C2=S)cc1	25400 nM	7.1	3600 nM	–
COc1ccc(C(=O)Nc2ccc(NC(=S)NC(=O)c3ccc(C(C)(C)C)cc3)cc2)cc1	72200 nM	24100	3 nM	EC50 (Influenza B virus [3]): 400 nM; EC50 (Influenza B virus [4]): 300 nM
CC(C)(C)c1ccc(C(=O)NC(=S)Nc2ccc(F)cc2)cc1	> 100000 nM	> 164	610 nM	–
COc1ccccc1C(=O)Nc1ccc(NC(=S)NC(=O)c2ccc(C(C)(C)C)cc2)cc1	72200 nM	2670	27 nM	–
CC(=O)Nc1ccc(NC(=S)NC(=O)c2cc3ccccc3s2)cc1	90200 nM	334	270 nM	–
CCc1ccc(C(=O)Nc2ccc(NC(=S)NC(=O)c3ccc(C(C)(C)C)cc3)cc2)cc1	> 100000 nM	> 100000	1 nM	–
Cc1ccc(C(=O)Nc2ccc(NC(=S)NC(=O)c3ccc(C(C)(C)C)cc3)cc2)cc1	> 100000 nM	> 3700	27 nM	–
CC(C)(C)c1ccc(C(=O)NC(=S)Nc2ccccn2)cc1	> 100000 nM	> 314	319 nM	–
CC(C)(C)c1ccc(C(=O)NC(=S)Nc2ccc(NC(=O)c3ccc(F)cc3)cc2)cc1	> 100000 nM	> 3700	27 nM	–
CC(C)(C)c1ccc(C(=O)NC(=S)Nc2ccc(NC(=O)c3ccc(Br)cc3)cc2)cc1	> 100000 nM	> 12500	8 nM	–
COc1cccc(C(=O)NC(=S)Nc2ccc(NC(C)=O)cc2)c1	–	–	–	Activity (Influenza A virus): inactive
CC(C)(C)c1ccc(C(=O)NC(=S)Nc2ccccc2Cl)cc1	48000 nM	1330	36 nM	–
COc1ccccc1NC(=S)NC(=O)c1ccc(C(C)(C)C)cc1	> 100000 nM	> 909	110 nM	–
CC(C)(C)C(=O)Nc1ccc(NC(=S)NC(=O)c2ccc(C(C)(C)C)cc2)cc1	81000 nM	5400	15 nM	–
CC(C)(C)c1ccc(C(=O)NC(=S)Nc2ccccc2F)cc1	> 100000 nM	> 2220	45 nM	–
CC(=O)Nc1ccc(NC(=S)NC(=O)c2ccc(N(C)C)cc2)cc1	–	–	–	Activity (Influenza A virus): inactive
COc1ccc(C(=O)NC(=S)Nc2ccc(NC(C)=O)cc2)cc1	–	–	–	Activity (Influenza A virus): inactive
CC(C)(C)c1ccc(C(=O)NC(=S)Nc2c(Br)cc(Br)cc2Br)cc1	60700 nM	169	360 nM	–
CCC(=O)Nc1ccc(NC(=S)NC(=O)c2ccc(C(C)(C)C)cc2)cc1	86900 nM	5430	16 nM	EC50 (Influenza B virus [3]): 3100 nM; Cmax [5]: 13 ng/mL; AUC(0-t) at 24 h [6]: 1240 ng·h/mL; Cmax [7]: 3650 ng/mL; AUC(0-t) at 24 h [8]: 34 ng·h/mL; AUC(0-inf) [9]: 36 ng·h/mL; EC50 (Influenza B virus [4]): 2500 nM; Tmax [10]: 4.8 min; half-life [11]: 51 min; bioavailability [12]: 0.83%; Tmax [13]: 25.2 min; half-life [14]: 113 min; AUC ([15]; iv, 3 mg/kg, 24 h): 1236 ng·h/mL
COc1cccc(C(=O)Nc2ccc(NC(=S)NC(=O)c3ccc(C(C)(C)C)cc3)cc2)c1	72200 nM	3140	23 nM	–
CC(C)(C)c1ccc(C(=O)NC(=S)Nc2ccc3ccccc3n2)cc1	91700 nM	110	830 nM	–

Compound	CC50 [1]	selectivity ratio [2]	EC50 (Influenza A virus)	further results
CC(C)(C)c1ccc(C(=O)NC(=S)Nc2ccc(NC(=O)c3ccc(Cl)cc3)cc2)cc1	> 100000 nM	> 33300	3 nM	EC50 (Influenza B virus [3]): 900 nM; EC50 (Influenza B virus [4]): 300 nM
Cc1ccc(NC(=S)NC(=O)c2ccc(C(C)(C)C)cc2)c(C)c1	97900 nM	2220	44 nM	–
CC(C)(C)c1ccc(C(=O)NC(=S)Nc2ccc(F)cc2F)cc1	95700 nM	133	720 nM	–
CC(=O)Nc1ccc(NC(=S)NC(=O)c2ccccc2)cc1	–	–	–	Activity (Influenza A virus): inactive
CC(C)(C)c1ccc(C(=O)NC(=S)Nn2cnnc2)cc1	65900 nM	74.9	880 nM	–
Cc1ncn(-c2ccc(NC(=S)NC(=O)c3ccc(C(C)(C)C)cc3)cc2)n1	52700 nM	3.1	16900 nM	–
CC(C)(C)c1ccc(C(=O)NC(=S)Nc2ccc(O)cc2)cc1	77700 nM	3880	20 nM	EC50 (Influenza B virus [3]): 5200 nM; Cmax [5]: 12.8 ng/mL; AUC(0-t) at 24 h [6]: 1100 ng·h/mL; Cmax [7]: 2520 ng/mL; AUC(0-t) at 24 h [8]: 44.3 ng·h/mL; EC50 (Influenza B virus [4]): 4000 nM; Tmax [10]: 4.8 min; half-life [11]: 30.6 min; clearance [16]: 46.4 mL/min/kg; bioavailability [12]: 1.21%; Tmax [13]: 94.8 min; AUC(0-inf) ([15]; Sprague-Dawley): 1100 ng·h/mL
Cc1ccccc1NC(=S)NC(=O)c1ccc(C(C)(C)C)cc1	> 100000 nM	> 2630	38 nM	–
CC(C)(C)c1ccc(C(=O)NC(=S)Nc2ccc(C(F)(F)F)cc2C(F)(F)F)cc1	74300 nM	165	450 nM	–
CC(C)(C)c1ccc(C(=O)NC(=S)Nc2cc(Br)cc(Br)c2)cc1	70900 nM	111	640 nM	–
CCCCc1ccc(C(=O)Nc2ccc(NC(=S)NC(=O)c3ccc(C(C)(C)C)cc3)cc2)cc1	> 100000 nM	> 12500	8 nM	–
CC(=O)Nc1ccc(NC(=S)NC(=O)c2cccs2)cc1	52200 nM	21.4	2440 nM	–
CC(C)(C)c1ccc(C(=O)NC(=S)Nc2ccc(N)cc2)cc1	100000 nM	4170	24 nM	EC50 (Influenza B virus [3]): 4900 nM; EC50 (Influenza B virus [4]): 1900 nM
CC(=O)Nc1ccc(NC(=S)NC(=O)c2ccc(C(C)C)cc2)cc1	46900 nM	4.2	11200 nM	–
Cc1ccc(NC(=S)NC(=O)c2ccc(C(C)(C)C)cc2)c(Br)c1	41100 nM	1280	32 nM	EC50 (Influenza B virus [3]): 6200 nM; EC50 (Influenza B virus [4]): 3200 nM
CC(=O)Nc1ccc(NC(=S)NC(=O)c2ccc(C(C)(C)C)cc2)cc1	50000 nM	200	250 nM	–
CCCCCc1ccc(C(=O)Nc2ccc(NC(=S)NC(=O)c3ccc(C(C)(C)C)cc3)cc2)cc1	77200 nM	7720	10 nM	–
CC(C)(C)c1ccc(C(=O)NC(=O)Nc2ccccc2F)cc1	97900 nM	> 667	150 nM	–
CC(C)(C)c1ccc(C(=O)NC(=S)Nc2c(Br)cccc2Br)cc1	70900 nM	417	170 nM	–
CC(C)(C)c1ccc(C(=O)NC(=S)Nc2ccc(NC(=O)c3ccccc3)cc2)cc1	77200 nM	19300	4 nM	EC50 (Influenza B virus [3]): 600 nM; EC50 (Influenza B virus [4]): 700 nM
CC(C)(C)c1ccc(C(=O)NC(=S)Nc2cccc(F)c2)cc1	50500 nM	555	91 nM	–
CCCc1ccc(C(=O)Nc2ccc(NC(=S)NC(=O)c3ccc(C(C)(C)C)cc3)cc2)cc1	> 100000 nM	> 100000	1 nM	–
O=C(NC(=S)Nc1ccccc1F)c1cc2ccccc2s1	> 100000 nM	> 10	10000 nM	–
CC(=O)Nc1ccc(NC(=S)NC(=O)c2ccc(Cl)cc2)cc1	–	–	–	Activity (Influenza A virus): inactive
CC(C)(C)c1ccc(C(=O)NC(=S)Nc2ccccc2Br)cc1	85100 nM	2660	32 nM	–
